# Test results from patent US20090124599A1, “Fungicidal Mixtures” (Basf Aktiengesellschaft, priority 2004, published 2009).
# Assays:
# [1] = test system: Botrytis cinerea; test: Activity against the gray mold pathogen Botrytis cinerea in the microtiter test; format: cell-based; settings: single active, day 7 after inoculation, absorption 405 nm
# [2] = test system: Phytophthora infestans; format: in vivo, Phytophthora infestans on tomato plants; settings: 16 ppm; single active; sprayed 5 days before infection, assessed after 6 days; control 90% infection
SMILES,Observed efficacy (%) ([1]; 0.063 ppm),Observed efficacy (%) [2] [%],Observed efficacy (%) ([1]; 0.125 ppm),Observed efficacy (%) ([1]; 0.25 ppm)
"O=[N+]([O-])c1cc(C(F)(F)F)c(Cl)c([N+](=O)[O-])c1Nc1ncc(C(F)(F)F)cc1Cl [fluazinam (II-1), 3-chloro-N-[3-chloro-2,6-dinitro-4-(trifluoromethyl)phenyl]-5-(trifluoromethyl)-2-pyridineamine]",35,22,–,–
"CO/C=C(/C(=O)OC)c1ccccc1CO/N=C(C)/C=C/c1ccc(Cl)cc1 [enestroburin (I), methyl 2-{2-[3-(4-chlorophenyl)-1-methylallylideneaminooxymethyl]phenyl}-3-methoxyacrylate]",0,–,0,0
Cc1cc(C)nc(Nc2ccccc2)n1 [pyrimethanil (II-9)],–,–,70,–
